According to patent US12257247B2 (Monte Rosa Therapeutics AG, priority 2023, dated 2025):
Read-outs that look alike come from different tables or passages of the source.

Molecular target: T1, VAV1 (Homo sapiens, UniProt P15498+Q96SW2)
T1 construct: A heterozygous VAV1 C-terminal HiBiT knock-in pool was generated at Monte Rosa Therapeutics from a clonal Jurkat cell; endogenous in cells; host or cells: Jurkat clone stably expressing LgBiT, homozygous GSPT1-G575N; heterozygous VAV1-HiBiT knock-in pool
Test: VAV1 degradation activity, VAV1-HiBiT knock-in Jurkat luminescence assay (Example A, Table 1)
Assay type: cell-based
Conditions: VAV1-HiBiT knock-in Jurkat cells, luminescence read at 6 and 24 hours; for Dmax: Jurkat
Outline: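 Jurkat cells carrying VAV1-HiBiT knock-in, plated in RPMI/10% FBS with Endurazine live-cell substrate and pre-incubated ~16 h at 37° C. Compound dosed from 10 μM stock; luminescence read 6 and 24 h later. Response normalised to plate negative/positive controls, EC50 from 3-parameter logistic fit (hillslope 1).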

[1] = read-out: VAV1 DC50 (nM), class

| SMILES | Dmax (read-out: VAV1 Dmax %) [%] | Dmax (read-out: VAV1 Dmax %, class) [%] | DC50 (read-out: VAV1 DC50) [nM] | DC50 [1] [nM] | VAV1 Dmax %, class | VAV1 Dmax % [%] |
| --- | --- | --- | --- | --- | --- | --- |
| O=C1CCC(c2cccc(-c3ccc(CN4C(=O)CCn5nccc54)cc3)c2Cl)C(=O)N1 (stereo not drawn) [Compound 253] | 87.7 | 60 to 90 | 29.6 | ≤ 100 | – | – |
| CC1Oc2ccncc2N(Cc2ccc(-c3cccc(C4CCC(=O)NC4=O)c3Cl)cc2)C1=O (stereo not drawn) [Compound 254] | 96.2 | > 90 | 11.2 | ≤ 100 | – | – |
| CN1CC(=O)N(Cc2ccc(-c3cccc(C4CCC(=O)NC4=O)c3Cl)cc2)c2cccnc21 (stereo not drawn) [Compound 255] | 89.5 | 60 to 90 | 11 | ≤ 100 | – | – |
| CN1CC(=O)N(Cc2ccc(-c3cccc(C4CCC(=O)NC4=O)c3Cl)cc2)c2cnccc21 (stereo not drawn) [Compound 256] | 75.8 | 60 to 90 | 213 | 100 to 1000 | – | – |
| CN1CC(=O)N(Cc2ccc(-c3cccc(C4CCC(=O)NC4=O)c3Cl)cc2)CC1(C)C (stereo not drawn) [Compound 257] | 94.2 | > 90 | 9.66 | ≤ 100 | – | – |
| O=C1CCC(c2cccc(-c3ccc(CN4CC(C(F)(F)F)OCC4=O)cc3)c2Cl)C(=O)N1 (stereo not drawn) [Compound 258] | 94.5 | > 90 | 12.6 | ≤ 100 | – | – |
| CN1CC(=O)N(Cc2ccc(-c3cccc(C4CCC(=O)NC4=O)c3Cl)cc2)CC12COC2 (stereo not drawn) [Compound 259] | 90 | > 90 | 28.1 | ≤ 100 | – | – |
| O=C1CCC(c2cccc(-c3ccc(CN4CC5CCCN5CC4=O)cc3)c2Cl)C(=O)N1 (stereo not drawn) [Compound 260] | 83.9 | 60 to 90 | 193 | 100 to 1000 | – | – |
| O=C1CCC(c2cccc(-c3ccc(CN4CCN5CCCC5C4=O)cc3)c2Cl)C(=O)N1 (stereo not drawn) [Compound 261] | 84.8 | 60 to 90 | 101 | 100 to 1000 | – | – |
| O=C1CCC(c2cccc(-c3ccc(CN4C(=O)CCCC4C(F)(F)F)cc3)c2Cl)C(=O)N1 (stereo not drawn) [Compound 262] | 90.2 | > 90 | 32.6 | ≤ 100 | – | – |
| CC1(C)COCC(=O)N1Cc1ccc(-c2cccc(C3CCC(=O)NC3=O)c2Cl)cc1 (stereo not drawn) [Compound 263] | 87.5 | 60 to 90 | 29.3 | ≤ 100 | – | – |
| O=C1CCC(c2cccc(-c3ccc(CN4C(=O)COCC45CC5)cc3)c2Cl)C(=O)N1 (stereo not drawn) [Compound 264] | 84.6 | 60 to 90 | 39.5 | ≤ 100 | – | – |
| C[C@H]1COCC(=O)N1Cc1ccc(-c2cccc(C3CCC(=O)NC3=O)c2Cl)cc1 (stereo partly drawn) [Compound 265] | 88 | 60 to 90 | 32.5 | ≤ 100 | – | – |
| CC1CCC(F)(F)C(=O)N1Cc1ccc(-c2cccc(C3CCC(=O)NC3=O)c2Cl)cc1 (stereo not drawn) [Compound 266] | 93.2 | > 90 | 14.1 | ≤ 100 | – | – |
| CC1CN(Cc2ccc(-c3cccc(C4CCC(=O)NC4=O)c3Cl)cc2)C(=O)C(C)O1 (stereo not drawn) [Compound 267] | 96.4 | > 90 | 11.5 | ≤ 100 | – | – |
| CC1(C)CN(c2cccc(-c3ccc(CC4CCC(=O)NC4=O)cc3Cl)c2)C(=O)CO1 (stereo not drawn) [Compound 268] | 94.5 | – | 12.8 | ≤ 100 | A (A represents a Dmax % >90%) | – |
| O=C1CCC(c2cccc(-c3ccc(CN4CC5(F)CC(C5)C4=O)cc3)c2Cl)C(=O)N1 (stereo not drawn) [Compound 269] | 96.9 | > 90 | 6.83 | ≤ 100 | – | – |
| O=C1CCC(c2cccc(-c3cccc(CC4CCC(F)C(=O)N4)c3)c2Cl)C(=O)N1 (stereo not drawn) [Compound 270] | 89.6 | 60 to 90 | 31.3 | ≤ 100 | – | – |

| SMILES | Dmax (read-out: VAV1 Dmax %) [%] | Dmax (read-out: VAV1 Dmax %, class) [%] | DC50 (read-out: VAV1 DC50) [nM] | DC50 [1] [nM] | VAV1 Dmax %, class | VAV1 Dmax % [%] |
| --- | --- | --- | --- | --- | --- | --- |
| COC1CCCC(=O)N1Cc1ccc(-c2cccc(C3CCC(=O)NC3=O)c2Cl)cc1 (stereo not drawn) [Compound 271] | 83.8 | 60 to 90 | 50.9 | ≤ 100 | – | – |
| Cn1ccc2c1C(=O)N(Cc1ccc(-c3cccc(C4CCC(=O)NC4=O)c3Cl)cc1)CC2 (stereo not drawn) [Compound 272] | 96.8 | > 90 | 13.6 | ≤ 100 | – | – |
| O=C1CCC(c2cccc(-c3ccc(CN4CCn5cncc5C4=O)cc3)c2Cl)C(=O)N1 (stereo not drawn) [Compound 273] | 78 | 60 to 90 | 118 | 100 to 1000 | – | – |
| O=C1CCC(c2cccc(-c3ccc(CN4CCn5ccnc5C4=O)cc3)c2Cl)C(=O)N1 (stereo not drawn) [Compound 274] | 69.5 | 60 to 90 | 269 | 100 to 1000 | – | – |
| O=C1CCC(c2cccc(-c3ccc(CN4CCn5nccc5C4=O)cc3)c2Cl)C(=O)N1 (stereo not drawn) [Compound 275] | 87.6 | 60 to 90 | 37.2 | ≤ 100 | – | – |
| O=C1CCC(c2cccc(-c3ccc(CN4Cc5nccn5CC4=O)cc3)c2Cl)C(=O)N1 (stereo not drawn) [Compound 276] | 88.6 | 60 to 90 | 47.6 | ≤ 100 | – | – |
| CN1CCN(Cc2ccc(-c3cccc(C4CCC(=O)NC4=O)c3Cl)cc2)C(=O)C1 (stereo not drawn) [Compound 277] | 76.8 | 60 to 90 | 647 | 100 to 1000 | – | – |
| O=C1CCC(c2cccc(-c3ccc(CN4C(=O)CC45CCOCC5)cc3)c2Cl)C(=O)N1 (stereo not drawn) [Compound 278] | 95.9 | > 90 | 5.33 | ≤ 100 | – | – |
| O=C1CCC(c2cccc(-c3ccc(CN4C(=O)CC45CCC5)cc3)c2Cl)C(=O)N1 (stereo not drawn) [Compound 279] | 98.5 | > 90 | 4.83 | ≤ 100 | – | – |
| CC1(C)CN(c2cccc(-c3ccc(CC4CCC(=O)NC4=O)cc3Cl)c2)C(=O)CO1 (stereo not drawn) [Compound 280] | – | – | 44.9 | ≤ 100 | B (B represents Dmax % >60% and <=90%) | 83.31 |
| O=C1CCC(c2cccc(-c3ccc(CN4CC5CCCC5C4=O)cc3)c2Cl)C(=O)N1 (stereo not drawn) [Compound 282] | 98 | > 90 | 3.88 | ≤ 100 | – | – |
| O=C1CCC(c2cccc(-c3ccc(CN4CCC5CC5C4=O)cc3)c2Cl)C(=O)N1 (stereo not drawn) [Compound 283] | 93.3 | > 90 | 11.1 | ≤ 100 | – | – |
| CC1(C)CCC(=O)N(Cc2ccc(-c3cccc(C4CCC(=O)NC4=O)c3Cl)cc2)C1 (stereo not drawn) [Compound 284] | 98 | > 90 | 3.48 | ≤ 100 | – | – |
| CC1(C)CCN(Cc2ccc(-c3cccc(C4CCC(=O)NC4=O)c3Cl)cc2)C(=O)C1 (stereo not drawn) [Compound 285] | 95.2 | > 90 | 10.2 | ≤ 100 | – | – |
| CC1CCN(Cc2ccc(-c3cccc(C4CCC(=O)NC4=O)c3Cl)cc2)C(=O)C1 (stereo not drawn) [Compound 286] | 94 | > 90 | 15.9 | ≤ 100 | – | – |
| CC1CCCN(Cc2ccc(-c3cccc(C4CCC(=O)NC4=O)c3Cl)cc2)C1=O (stereo not drawn) [Compound 287] | 95.5 | > 90 | 12.5 | ≤ 100 | – | – |
| CC1CCC(=O)N(Cc2ccc(-c3cccc(C4CCC(=O)NC4=O)c3Cl)cc2)C1 (stereo not drawn) [Compound 288] | 96.7 | > 90 | 6.09 | ≤ 100 | – | – |
| O=C1CCC(c2cccc(-c3ccc(CN4CCC(F)C4=O)cc3)c2Cl)C(=O)N1 (stereo not drawn) [Compound 289] | 86.7 | 60 to 90 | 43.3 | ≤ 100 | – | – |
